Data on 24 compounds can be found in patent publication US7196110B2, “N-substituted tricyclic 3-aminopyrazoles as inhibitors for the treatment of cell proliferative disorders” (Janssen Phamaceutica N.V., priority 2002, dated 2007).

The test addresses T1, PDGF-receptor beta enzyme comprising the tyrosine kinase domain (Homo sapiens, UniProt P09619).
T1 construct: from amino acid 545 to 1106 of GenBank Access NO: AAA36427
Put plainly: Inhibition of PDGF-receptor kinase activity (cell-free, PLC1 peptide, 33P Flashplate). It counts as biochemical. Conditions: for inhibition at 10 µM: compound at 10 uM, read-out: Percent Inhibition @ 10 uM. The essentials: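 Recombinant kinase domain (aa 545–1106) phosphorylated a biotinylated PLC1 peptide with 5 μM ATP plus 33P-γ-ATP, in Tris pH 8, MgCl2, Na3VO4 and 1 mM DTT, for 60 min at 30 °C. Retained 33P was counted after washing. IC50 is the concentration halving activity versus no-inhibitor reactions.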

The mark [1] stands for this setting: PDGF-R kinase activity, read-out: IC50.
The mark [2] stands for this setting: read-out: IC50 (μM) on PDGF-R kinase activity.

Where two headings read alike, the source gives them in different places.

T1 sequence (P09619 545-1106): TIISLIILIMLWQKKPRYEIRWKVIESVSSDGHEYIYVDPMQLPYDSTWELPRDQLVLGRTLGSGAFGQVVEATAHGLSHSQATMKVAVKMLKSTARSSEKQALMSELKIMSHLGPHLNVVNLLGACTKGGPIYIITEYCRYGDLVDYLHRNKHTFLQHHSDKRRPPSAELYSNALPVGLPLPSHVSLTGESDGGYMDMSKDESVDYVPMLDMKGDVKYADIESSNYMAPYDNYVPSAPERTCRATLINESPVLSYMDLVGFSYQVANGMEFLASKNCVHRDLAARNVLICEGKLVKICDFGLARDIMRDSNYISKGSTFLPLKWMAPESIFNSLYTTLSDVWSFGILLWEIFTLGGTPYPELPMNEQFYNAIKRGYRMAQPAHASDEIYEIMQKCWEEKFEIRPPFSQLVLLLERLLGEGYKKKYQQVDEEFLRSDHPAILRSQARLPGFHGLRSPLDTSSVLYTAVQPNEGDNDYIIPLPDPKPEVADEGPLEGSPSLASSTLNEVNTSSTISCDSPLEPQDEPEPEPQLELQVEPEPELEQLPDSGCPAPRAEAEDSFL

Regarding `COc1cc2c(cc1OC)-c1n[nH]c(Nc3cccc(C(=O)O)c3)c1C2` [Compound 115, 3-(6,7-Dimethoxy-2,4-dihydro-indeno[1,2-c]pyrazol-3-ylamino)-benzoic acid], the inhibition (commonly the relative decrease from the control value, in per cent) at 10 µM (PDGF-R kinase activity) turned out to be 82%. The IC50 (usually the concentration needed to halve the response being measured) under setting [1] was 3.06 µM.
Turning to `CCC1c2cc(OC)c(OC)cc2-c2n[nH]c(Nc3cccc(F)c3)c21` (centres unmarked) [Compound 421, (4-Ethyl-6,7-dimethoxy-2,4-dihydro-indeno[1,2-c]pyrazol-3-yl)-(3-fluoro-phenyl)-amine], for the setting “PDGF-R kinase activity”, the inhibition at 10 µM is 100%. Under setting [1], the half-maximal inhibitory concentration (IC50) worked out at 0.0822 µM.
As to `CCC(=O)n1nc(Nc2cccc(F)c2)c2c1-c1cc(OC)c(OC)cc1C2` [Compound 430, 1-[3-(3-Fluoro-phenylamino)-6,7-dimethoxy-4H-indeno[1,2-c]pyrazol-1-yl]-propan-1-one], under “PDGF-R kinase activity”, the inhibition at 10 µM was determined as 61.5%. Further, the half-maximal inhibitory concentration (IC50) under setting [1] stood at 0.571 µM.
Consider `COc1cccc2c1Cc1c-2n[nH]c1Nc1ccc(F)cc1` [Compound 144, (4-Fluoro-phenyl)-(5-methoxy-2,4-dihydro-indeno[1,2-c]pyrazol-3-yl)-amine], for which, for the setting “PDGF-R kinase activity”, the inhibition at 10 µM was found to be 96.5%. Besides, the concentration for half-maximal inhibition (IC50) under setting [1] was 0.836 µM.
As to `COc1cc2c(cc1OC)C(C)(C)c1c-2n[nH]c1Nc1cccc(F)c1` [Compound 487, (6,7-Dimethoxy-4,4-dimethyl-2,4-dihydro-indeno[1,2-c]pyrazol-3-yl)-(3-fluoro-phenyl)-amine], the inhibition at 10 µM (PDGF-R kinase activity) amounted to 43%. Moreover, the half-inhibitory concentration (IC50) under setting [1] is 37.5 µM.
Consider `OCCCOc1cc2c(cc1OCCCO)-c1n[nH]c(Nc3cccnc3)c1C2` [Compound 372, 3-[7-(3-Hydroxy-propoxy)-3-(pyridin-3-ylamino)-2,4-dihydro-indeno[1,2-c]pyrazol-6-yloxy]-propan-1-ol], for which the inhibition at 10 µM (PDGF-R kinase activity) was determined as 100%. The half-inhibitory concentration (IC50) under setting [1] worked out at 0.0155 µM.
On the same counts, the results for `COc1cc2c(cc1OC)-c1n[nH]c(NCc3cccc(OC)c3OC)c1C2` [Compound 322, (2,3-Dimethoxy-benzyl)-(6,7-dimethoxy-2,4-dihydro-indeno[1,2-c]pyrazol-3-yl)-amine] are 22% and 0.0547 µM.
`COc1ccc2c(c1)-c1n[nH]c(Nc3cc(F)ccc3F)c1C2` [Compound 176, (2,5-Difluoro-phenyl)-(7-methoxy-2,4-dihydro-indeno[1,2-c]pyrazol-3-yl)-amine]: under “PDGF-R kinase activity”, the inhibition at 10 µM came to 46.5%. Moreover, the half-maximal inhibitory concentration (IC50) under setting [1] was 0.318 µM.
With `COc1cc2c(cc1OC)-c1n[nH]c(NCc3ccc(F)cc3)c1C2` [Compound 331, (6,7-Dimethoxy-2,4-dihydro-indeno[1,2-c]pyrazol-3-yl)-(4-fluoro-benzyl)-amine], the inhibition at 10 µM (PDGF-R kinase activity) came to 93%. For the same compound, the 50% inhibitory concentration (IC50) under setting [1] was found to be 0.189 µM.
Regarding `COc1cc2c(c(N)c1OC)Cc1c-2n[nH]c1Nc1cccc(F)c1` [Compound 558, N3-(3-Fluoro-phenyl)-6,7-dimethoxy-2,4-dihydro-indeno[1,2-c]pyrazole-3,5-diamine], where the note is “PDGF-R kinase activity”, the inhibition at 10 µM amounted to 102%. Also, the IC50 under setting [1] turned out to be 0.0121 µM.
On the same counts, the results for `COc1cccc(Nc2[nH]nc3c2Cc2cc(N4CCN(C)CC4)ccc2-3)c1` [Compound 123, (3-Methoxy-phenyl)-[6-(4-methyl-piperazin-1-yl)-2,4-dihydro-indeno[1,2-c]pyrazol-3-yl]-amine] are 87% and 0.228 µM.
Take `OCCCOc1cccc2c1Cc1c-2n[nH]c1Nc1cccc(F)c1` [Compound 442, 3-[3-(3-Fluoro-phenylamino)-2,4-dihydro-indeno[1,2-c]pyrazol-5-yloxy]-propan-1-ol]: the inhibition at 10 µM (PDGF-R kinase activity) was found to be 94.5%. Also, the half-inhibitory concentration (IC50) under setting [1] came out at 0.205 µM.
As to `COCCCOc1ccc2c(c1)Cc1c-2n[nH]c1Nc1cccnc1` [Compound 142, [6-(3-Methoxy-propoxy)-2,4-dihydro-indeno[1,2-c]pyrazol-3-yl]-pyridin-3-yl-amine], the inhibition at 10 µM (PDGF-R kinase activity) stood at 82.5%. Under setting [1], the IC50 amounted to 0.453 µM.
For `Cc1ccc(CNc2[nH]nc3c2Cc2cc(F)ccc2-3)cc1Cl` [Compound 306, (3-Chloro-4-methyl-benzyl)-(6-fluoro-2,4-dihydroindeno[1,2-c]pyrazol-3-yl)-amine], the inhibition at 10 µM (PDGF-R kinase activity) came to 47.5%. Under setting [1], the IC50 stood at 8.59 µM.
On the same counts, the results for `c1ccc(Nc2[nH]nc3c2CCOc2ccccc2-3)cc1` [Compound 318, (4,5-Dihydro-2H-6-oxa-1,2-diaza-benzo[e]azulen-3-yl)-phenyl-amine] are 23% and 34.4 µM.
On the same counts, the results for `COc1ccc(Nc2[nH]nc3c2Cc2c(C)cccc2-3)c(OC)c1` [Compound 102, (2,4-Dimethoxy-phenyl)-(5-methyl-2,4-dihydro-indeno[1,2-c]pyrazol-3-yl)-amine] are 50% and 3.4 µM.
With `CCOC(=O)Cn1nc2c(c1Nc1cccc(F)c1)Cc1cc(OC)c(OC)cc1-2` [Compound 510, [3-(3-Fluoro-phenylamino)-6,7-dimethoxy-4H-indeno[1,2-c]pyrazol-2-yl]-acetic acid ethyl ester], the inhibition at 10 µM (PDGF-R kinase activity) is 57%. Also, the IC50 under setting [1] was determined as 26.6 µM.
Regarding `COc1cc2c(cc1OC)-c1n[nH]c(NCc3ccc(C)c(C)c3)c1C2` [Compound 320, (6,7-Dimethoxy-2,4-dihydro-indeno[1,2-c]pyrazol-3-yl)-(3,4-dimethyl-benzyl)-amine], the inhibition at 10 µM (PDGF-R kinase activity) was found to be 70.5%. Further, the half-maximal inhibitory concentration (IC50) under setting [1] came out at 1.96 µM.
Take `COc1cc2c(cc1OC)-c1c(c(Nc3cccc(F)c3)nn1CCO)C2` [Compound 572, 2-[3-(3-Fluoro-phenylamino)-6,7-dimethoxy-4H-indeno[1,2-c]pyrazol-1-yl]-ethanol]: the inhibition at 10 µM (PDGF-R kinase activity) came out at 67%. The IC50 under setting [2] is 7.33 µM.
Turning to `CCC1c2cc(OC)c(OC)cc2-c2n[nH]c(NCc3c(Cl)cccc3Cl)c21` (single isomer, unassigned) [Compound 585, (2,6-Dichloro-benzyl)-(4-ethyl-6,7-dimethoxy-2,4-dihydro-indeno[1,2-c]pyrazol-3-yl)-amine], for the setting “PDGF-R kinase activity”, the inhibition at 10 µM turned out to be 102%. In addition, under setting [2], the 50% inhibitory concentration (IC50) is 0.429 µM.
For `COc1cc2c(cc1OC)C(C)c1c-2n[nH]c1Nc1ccc(F)c(Cl)c1` (centres unmarked) [Compound 250, (3-Chloro-4-fluoro-phenyl)-(6,7-dimethoxy-4-methyl-2,4-dihydro-indeno[1,2-c]pyrazol-3-yl)-amine], where the note is “PDGF-R kinase activity”, the inhibition at 10 µM worked out at 88%. For the same compound, the half-maximal inhibitory concentration (IC50) under setting [1] worked out at 0.223 µM.
Regarding `COc1cc2c(cc1OC)-c1c(c(Nc3cccc(F)c3)nn1C(=O)Oc1ccc(Cl)cc1)C2` [Compound 501, 3-(3-Fluoro-phenylamino)-6,7-dimethoxy-4H-indeno[1,2-c]pyrazole-1-carboxylic acid 4-chloro-phenyl ester], the inhibition at 10 µM (PDGF-R kinase activity) amounted to 90%. For the same compound, under setting [1], the IC50 was 0.096 µM.
In the case of `COc1cc2c(cc1F)Cc1c-2n[nH]c1Nc1cccnc1` [Compound 364, (6-Fluoro-7-methoxy-2,4-dihydro-indeno[1,2-c]pyrazol-3-yl)-pyridin-3-yl-amine], the inhibition at 10 µM (PDGF-R kinase activity) worked out at 100%. In addition, the concentration for half-maximal inhibition (IC50) under setting [1] worked out at 0.0151 µM.
On to `COc1cc2c(cc1OC)-c1n[nH]c(Nc3ccc(Cl)cc3)c1C2` [Compound 5, (4-Chloro-phenyl)-(6,7-dimethoxy-2,4-dihydro-indeno[1,2-c]pyrazol-3-yl)-amine], for which, for the setting “PDGF-R kinase activity”, the inhibition at 10 µM amounted to 91%.
